Patent US6806286B2, “Pyrrolecarboxamides and pyrrolethioamides as fungicides” (Syngenta Crop Protection, Inc., priority 2000, dated 2004)

Legend:
Podosphaera leucotricha = experiment: Action against Podosphaera leucotricha/apple (powdery mildew on apple); type: in vivo; conditions: apple seedlings cv. McIntosh, spray 0.002% active ingredient, inoculated one day after application, assessed after 12 days incubation
Procedure: Action Against Podosphaera leucotricha/apple (Powdery Mildew on Apple)
5 week old apple seedlings cv. […] One day after application apple plants are inoculated by shaking plants infected with apple powdery mildew above the test plants. After an incubation period of 12 days at 22° C. and 60% r. h. under a light regime of 14/10 h (light/dark) the disease incidence is assessed.

Venturia Inaequalis = experiment: Action against Venturia inaequalis/apple (scab on apple); type: in vivo; conditions: apple seedlings cv. McIntosh, spray 0.02% active ingredient, inoculated one day after application, assessed after 4+4+4 days incubation
Procedure: Action Against Venturia Inaequalis/apple (Scab on Apple)
4 week old apple seedlings cv. […] One day after application apple plants are inoculated by spraying a spore suspension (4×10^5 conidia/ml) on the test plants. After an incubation period of 4 days at 21° C. and 95% r. h. the plants are placed for 4 days at 21° C. and 60% r. h. in a greenhouse. After another 4 day incubation period at 21° C. and 95% r. h. the disease incidence is assessed.

Etysiphe graminis = experiment: Action against Etysiphe graminis/barley (powdery mildew on barley); type: in vivo; conditions: barley plants cv. Express, spray 0.02% active ingredient, inoculated one day after application, assessed after 6 days incubation
Procedure: Action Against Etysiphe graminis/barley (Powdery Mildew on Barley)
1 week old barley plants cv. […] One day after application barley plants are inoculated by shaking powdery mildew infected plants above the test plants. After an incubation period of 6 days at 20° C./18° C. (day/night) and 60% r. h. in a greenhouse the disease incidence is assessed.

Botryis cinerea = experiment: Action against Botryis cinerea/apple (Botrytis on apple fruits); type: in vivo, B. cinerea; conditions: apple fruit cv. Golden Delicious, 30 μl droplets 0.002% active ingredient in drilled holes, inoculated two hours after application, assessed after 7 days
Procedure: Action Against Botryis cinerea/apple (Botrytis on Apple Fruits)
In an apple fruit cv. […] Two hours after application 50 μl of a spore suspension of B. cinerea (4×10^5 conidia/ml) are pipetted on the application sites. After an incubation period of 7 days at 22° C. in a growth chamber the disease incidence is assessed.

Boftis cinerea = experiment: Action against Boftis cinerea/grape (Botrytis on grapes); type: in vivo; conditions: grape seedlings cv. Gutedel, spray 0.002% active ingredient, inoculated two days after application, assessed after 4 days incubation
Procedure: Action Against Boftis cinerea/grape (Botrytis on Grapes)
5 week old grape seedlings cv. […] Two days after application grape plants are inoculated by spraying a spore suspension (1×10^6 conidia/ml) on the test plants. After an incubation period of 4 days at 21° C. and 95% r. h. in a greenhouse the disease incidence is assessed.

Botryts cinerea = experiment: Action against Botryts cinerea/tomato (Botrytis on tomatoes); type: in vivo; conditions: tomato plants cv. Roter Gnom, spray 0.002% active ingredient, inoculated two days after application, assessed after 4 days incubation
Procedure: Action Against Botryts cinerea/tomato (Botrytis on Tomatoes)
4 week old tomato plants cv. […] Two days after application tomato plants are inoculated by spraying a spore suspension (1×10^5 conidia/ml) on the test plants. After an incubation period of 4 days at 20° C. and 95% r. h. in a growth chamber the disease incidence is assessed.

Puenophora teres = experiment: Action against Puenophora teres/barley (net blotch on barley); type: in vivo; conditions: barley plants cv. Express, spray 0.002% active ingredient, inoculated two days after application, assessed 4 days after inoculation
Procedure: Action Against Puenophora teres/barley (Net Blotch on Barley)
1 week old barley plants cv. […] Two days after application barley plants are inoculated by spraying a spore suspension (3×10^4 conidia/ml) on the test plants. After an incubation period of 2 days at 20° C. and 95% r. h. plants are kept for 2 days at 20° C. and 60% r.h. in a greenhouse. The disease incidence is assessed 4 days after inoculation.

Septoria nodorum = experiment: Action against Septoria nodorum/wheat (Septoria leaf spot on wheat); type: in vivo; conditions: wheat plants cv. Arina, spray 0.02% active ingredient, inoculated one day after application, assessed 11 days after inoculation
Procedure: Action Against Septoria nodorum/wheat (Septoria Leaf Spot on Wheat)
1 week old wheat plants cv. […] One day after application wheat plants are inoculated by spraying a spore suspension (5×10^5 conidia/ml) on the test plants. After an incubation period of 1 day at 20° C. and 95% r. h. plants are kept for 10 days at 20° C. and 60% r.h. in a greenhouse. The disease incidence is assessed 11 days after inoculation.

Measured: efficacy (disease incidence)

CC(C)c1cn(C)cc1C(=O)Nc1ccccc1-c1ccc(Cl)cc1 [Compound 1.268]
strong efficacy: all assays above

Cn1cc(C(=O)Nc2ccccc2-c2ccc(F)cc2)c(C(F)(F)C(F)(F)F)c1 [Compound 1.192]
strong efficacy: all assays above

Cc1cn(C)cc1C(=O)Nc1ccccc1-c1ccc(Cl)cc1 [Compound 1.23]
strong efficacy: all assays above

CCn1cc(C(=O)Nc2ccccc2-c2ccc(F)cc2)c(C(C)C)c1 [Compound 1.272]
strong efficacy: all assays above

Cn1cc(C(=O)Nc2ccccc2C2CCCCC2)c(C(F)(F)C(F)(F)F)c1 [Compound 1.187]
strong efficacy: all assays above

Cn1cc(C(=O)Nc2ccccc2C2=CCCCC2)c(C(F)(F)C(F)(F)F)c1 [Compound 1.183]
strong efficacy: all assays above

Cn1cc(C(=O)Nc2ccccc2-c2ccc(Cl)cc2)c(C(F)(F)C(F)(F)F)c1 [Compound 1.190]
strong efficacy: all assays above

CCc1cn(CC)cc1C(=O)Nc1ccccc1-c1ccc(Cl)cc1 [Compound 1.265]
strong efficacy: all assays above

Cc1cn(C)cc1C(=O)Nc1ccsc1-c1ccc(Cl)cc1 [Compound 2.23]
strong efficacy: all assays above

Cn1cc(C(=O)Nc2ccccc2C2CCCCC2)c(C2CC2)c1 [Compound 1.206]
strong efficacy: all assays above

Cc1cn(C)cc1C(=O)Nc1ccccc1C1CCCCC1 [Compound 1.9]
strong efficacy: all assays above

Cc1cn(C)cc1C(=O)Nc1ccccc1-c1ccncc1F [Compound 1.46]
strong efficacy: all assays above
